From patent US20080167571A1, “DETERMINATION OF TREATMENT RESULTS PRIOR TO TREATMENT OR AFTER FEW TREATMENT EVENTS” (priority 2006, published 2008)

Assays:
[1] = Neuropsychological and neurophysiological testing of AEDs, double-blind randomized two period crossover; type: in vivo, healthy adult volunteers
Description: The purpose of the underlying study was to evaluate the neuropsychological and neurophysiological effects of the AED carbamazepine (CBZ), and the AED levitiracetam (LEV) in healthy subjects, employing a double-blind, two period crossover design (Meador et al., 2007). In accordance with the present invention, data at non-drug baseline sessions predicted which subjects would have the most negative effects of CBZ.
A total of 28 healthy adult volunteers without history of neurological or psychiatric diseases completed the protocol (17 women; 11 men; mean age=33 years, range=18-51). All subjects remained free of centrally active prescription medications throughout the study.
The study employed a double-blind, randomized, two period crossover design. Subjects were screened and tested at the non-drug baseline.
Subsequently, they were randomly assigned to receive either AED. Each AED was administered over eight weeks, which included a titration period and a one month maintenance period. Each AED treatment period was followed by a four day taper and a washout period for the remainder of the four weeks. Then, subjects were treated with the other AED for eight weeks followed by a final four week washout period.
CBZ was given at 200 mg/day for the first week, 200 mg/day bid for the 2nd week, then adjusted to midrange anticonvulsant blood levels (ABLs) at tid dosages. LEV was begun at 500 mg/day for two weeks, then increased to 500 mg bid for two weeks, then increased to 1000 mg bid.
Subjects underwent neuropsychological and neurophysiological testing on six occasions (i.e., two AED conditions and four non-drug conditions) over 25 weeks. Test sessions occurred at week one before drug administration, at week nine after four weeks of titration and maintenance on the first drug for four weeks, at week 21 after 4 weeks of wash out, 4 weeks of titration on drug 2 and 4 weeks maintenance on drug 2, and at week 25 after 4 weeks of washout.
Patient data was obtained in accordance with procedures set forth in U.S. Pat. Nos. 6,947,790; 6,434,419 and 5,295,491; in this embodiment EEG data was obtained simultaneously with the subject taking a test battery of attention demanding tasks, for example a set of psychometric tasks.
Data was obtained from a verbal episodic memory task consisting of a word presentation phase, during which subjects had to indicate whether each word contained 1 or 2 syllables, and a delayed recognition phase in which subjects had to indicate whether each word had been presented earlier. A working memory task was presented in between these two phases, and acted as a distracter task. During the first repetition of this sequence, the working memory task was a low-load 1-back task, and during the second repetition, the working memory task was a high-load 2-back task. A number of standard neuropsychological and subjective rating scales were also administered. Test sessions lasted about an hour.

[2] = Post-drug EEG and subjective scale measures (LDA neurocognitive drug response score); type: in vivo, healthy adult volunteers; conditions: post-drug vs non-drug baseline
Description: Using the data and methods described in Example 1, we determined how a combination of post-drug EEG and the subject's subjective scale measures quantifies the response to carbamazepine. Accordingly, a stepwise linear discriminant analysis (LDA) was used to generate a neurocognitive drug response score for each subject, reflecting the magnitude of neurocognitive response to the drug as compared with the non-drug baseline. The sensitivity and specificity in detecting the effect of the drug were both 100%. Three variables were used in the LDA, of which two were EEG and one was a subjective scale measure. The EEG variables were occipito-parietal 2-10 Hz EEG power in all tasks (relative weight 0.6) which increased consequent to CBZ, peak alpha frequency in all tasks (relative weight 0.3) which decreased consequent to CBZ, and self-reported fatigue rating on the Profile of Mood Scale (POMS, Jacobson et al., 1978) (relative weight 0.3) which increased consequent to CBZ.

[3] = Symbol Digits Modality Test (SDMT) after taking CBZ; type: in vivo, healthy adult volunteers
Description: The SDMT is a standard neuropsychological test of “executive function” and includes complex scanning, visual tracking, and agility components. These non-drug baseline values of task performance, EEG, and evoked potential variables that were most sensitive to the effects of CBZ were used as candidate independent predictor variables. Stepwise multiple linear regression analysis was used to identify which of these candidate independent predictor variables at baseline best predicted the change in the SDMT after taking CBZ.

[4] = EEG with 1-back working memory task during methylphenidate dose titration in pediatric ADHD; type: in vivo, patients diagnosed with ADHD
Method: Fourteen patients diagnosed with ADHD and clinically classified by a physician specialist in ADHD as MPH-responders (patients who would benefit from taking MPH) completed the protocol (11 males, 3 females; age range 8-18, mean 11.3, standard deviation 3.1). All patients weighed more than 25 kg.
Patients received one week each of placebo (0 mg), 5 mg, 10 mg, 15 mg, and 20 mg daily doses of MPH for a total of five weeks, according to a fully counterbalanced, placebo-controlled, double-blind design. In this example EEG data was obtained concurrent with selected attention demanding tasks. […] Accordingly, an EEG computer-based examination was obtained simultaneously with the subject taking a test battery of attention demanding tasks, for example a set of psychometric tasks. Such data was obtained once a week, 1-3 hours post-ingestion of the prescribed dose for that week. Examinations were administered approximately the same time of day and on the same day of the week during the dose titration period. The protocol used in this study included a low-load simple reaction time task (SRT) task and a higher-load 1-back working memory (WM) task in sessions lasting about half an hour.
Analysis focused on the 1-back working memory task whose performance and EEG signals were most affected by MPH A divergence-based multivariate feature selection and pattern classification algorithm (for convenience called the neuroworkload meter—Gevins and Smith, 2003; Smith, Gevins, et al, 2001) was employed to choose and weight an optimal subset of features to characterize the MPH response.
A set of candidate 1-back WM performance and attention-sensitive EEG features most affected by varying MPH doses was selected based on the prior statistical analyses of the average of the MPH doses followed by visual inspection of the grand averaged EEG power spectra and evoked potential data. Feature subsets were limited to a maximum of four variables because of the small number of subjects in the experiment. […]

[5] = in vivo; cited from earlier work

With `NC(=O)N1c2ccccc2C=Cc2ccccc21` [CBZ, carbamazepine] the “variables worse compared to the non-drug average” value ([1]; CBZ 36 of 55, LEV 4 of 33) was 65%, the “low frequency (<10 Hz) EEG power” value ([1]; after one month maintenance) was “increase” and the “occipito-parietal 2-10 Hz EEG power in all tasks” value [2] was “increased”. For the same compound, the “peak alpha frequency in all tasks” value [2] was “decreased”, the “self-reported fatigue rating on the Profile of Mood Scale (POMS)” value [2] was “increased” and the “subjects with a decline in SDMT score of at least 15%” value ([3]; 28 subjects) was “Six of the 28 subjects”. The “average decline in SDMT” value ([3]; actual, across the 28 subjects, p<0.0003) was 6.7%.

In the case of `CC[C@@H](C(N)=O)N1CCCC1=O` [LEV, levetiracetam], the “untoward neuropsychological and neurophysiological effects” value ([1]; in vivo) is reported as “fewer untoward neuropsychological and neurophysiological effects than did CBZ”, the “variables with significant differences between the AEDs, all in favor of LEV” value ([1]; in vivo) is reported as 42% and the “variables worse compared to the non-drug average” value ([1]; in vivo) is reported as 12%.

For `COC(=O)C(c1ccccc1)C1CCCCN1` (stereo not drawn) [MPH, methylphenidate], the “dose-response relationship across patients” value ([4]; 0, 5, 10, 15, 20 mg daily, one week each) was “did not reveal any systematic dose-response relationship”, the “effect size (Cohen's d) of four-variable equation score” value ([4]; 20 mg vs placebo) was 2.12 and the “effect size (Cohen's d), dose with the highest score vs placebo” value ([4]; two-dose test analysis) was 3.43.

In the case of `CC1(C)O[C@@H]2[C@@H](CO[C@@]3(COS(N)(=O)=O)OC(C)(C)O[C@@H]23)O1` [topiramate], the “2-6 Hz EEG power” value [5] is listed as “increased” and the “working memory task performance” value [5] is listed as “adversely affected”.
